Data as given in PMC6707612, “Cyclic-di-GMP binds to histidine kinase RavS to control RavS-RavR phosphotransfer and regulates the bacterial lifestyle transition between virulence and swimming” (PLoS Pathogens, 2019).

Experiments:
[1] = system: DHp-CA^S636A, DHp-CA^D638A and DHp-CA^L652A; assay: microscale thermophoresis (MST) binding, Ala-substituted DHp-CA proteins; design: species or system Xanthomonas campestris pv. campestris; conditions: compared with positive control DHp-CA protein; fl-c-di-GMP used in the MST assay
Procedure: Fig 6 Arg^656 in the CA domain of RavS is a key residue for c-di-GMP binding. (a, b) c-di-GMP binds to the DHp-CA domain of RavS. PAS-A, PAS-B and DHp-CA in (a), and DHp and CA domains of RavS in (b), were purified and the interaction with c-di-GMP was measured by MST. Each assay was repeated three times. Standard deviations are shown. (c) Molecular docking model of the interaction between c-di-GMP and DHp-CA of RavS. c-di-GMP is shown as a ball-and-stick model and DHp-CA is shown in ribbon representation. (d) Schematic view of the predicted docking site between c-di-GMP and DHp-CA. Potential hydrogen bonds are indicated as blue dashed lines. Autodock software was used to predict the interaction. […] Ten recombinant proteins of the DHp-CA region, each containing a substitution of a putative essential residue involved in c-di-GMP binding, were used in the MST assay to quantify the Kd value of RavS–c-di-GMP binding. fl-c-di-GMP was used in the MST assay. […] The reactions were terminated with 5× SDS loading buffer and the products were separated by 12% SDS-PAGE, exposed to a phosphor screen and analysed by Typhoon FLA7000. […]
The interaction between c-di-GMP nucleotides and various proteins was measured by using MST with a fluorescein-labelled c-di-GMP (2′-Fluo-AHC-c-di-GMP, abbreviated as fl-c-di-GMP; 2′-Fluo-AHC-c-di-AMP, fl-c-di-AMP; 2′-Fluo-AHC-cGMP, fl-cGMP; Biolog, Germany). […]

PizD = molecular target: PizD; design: method as in PMID 26055114; conditions: lower end of reported range; cited from earlier work
RavS^ΔTrM = molecular target: T1, RavS^ΔTrM (Xanthomonas campestris pv. campestris, UniProt Q8P9A6); assay: microscale thermophoresis (MST) binding; conditions: 20 nM fluorescein-labelled nucleotide, read-out: dissociation constant (Kd)
T1 sequence (Q8P9A6 47-697): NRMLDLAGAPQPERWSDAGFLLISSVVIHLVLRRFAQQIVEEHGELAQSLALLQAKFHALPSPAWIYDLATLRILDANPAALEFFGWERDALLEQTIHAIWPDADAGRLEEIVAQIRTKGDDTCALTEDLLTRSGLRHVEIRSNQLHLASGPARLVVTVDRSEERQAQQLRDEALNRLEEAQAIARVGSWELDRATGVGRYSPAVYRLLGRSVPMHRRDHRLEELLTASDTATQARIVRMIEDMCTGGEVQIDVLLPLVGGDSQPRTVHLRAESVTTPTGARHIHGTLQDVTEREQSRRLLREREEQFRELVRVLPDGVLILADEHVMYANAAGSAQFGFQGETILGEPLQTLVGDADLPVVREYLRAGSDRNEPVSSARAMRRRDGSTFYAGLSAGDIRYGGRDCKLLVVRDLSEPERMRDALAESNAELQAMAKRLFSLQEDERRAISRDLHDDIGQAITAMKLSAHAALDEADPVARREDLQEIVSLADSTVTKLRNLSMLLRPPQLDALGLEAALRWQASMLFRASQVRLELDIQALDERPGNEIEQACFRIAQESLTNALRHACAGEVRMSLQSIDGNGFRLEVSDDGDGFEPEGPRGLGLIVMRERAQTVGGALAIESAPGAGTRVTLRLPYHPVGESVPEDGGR
Procedure: (a) c-di-GMP enhances RavS-RavR phosphotransfer in vitro. A total of 5 μM RavS^ΔN was autophosphorylated for 15 min by the addition of 10 μCi [γ-^32P]ATP. A total of 15 μM RavR^ΔEAL or RavR^ΔEAL(D496A) was added and incubated for 30 min at 25°C. A total of 100 μM c-di-GMP was added if necessary. The reactions were terminated with 5× SDS loading buffer before autoradiography. The experiment was repeated three times. (b) Time course analyses of the impact of c-di-GMP on the velocity of RavS-RavR phosphotransfer. The autophosphorylation and phosphotransfer reactions were set as mentioned in (a). Various concentrations of c-di-GMP were added to the reactions and isotopic signals (band intensities) of RavS~P were measured after autoradiography. (c–d) c-di-GMP triggered an increase in RavS-RavR phosphotransfer in a dose-dependent manner. (c) Various concentrations of c-di-GMP (0, 5, 10, 15, 30, 50, 75 and 100 μM) were added to the RavS-RavR phosphotransfer reactions. (d) The phosphorylated level of RavS^ΔN~P was quantified by ImageJ and the EC50 value was estimated by Origin 8.5 software. In (b) and (d), the intensity of each data point is the average from three experimental repeats. (e) c-di-GMP triggered increase in RavS-RavR phosphotransfer is highly specific. […] The interaction between RavS^ΔTrM and various nucleotides, including fl-c-di-GMP, fl-cGMP and fl-c-di-AMP, were measured by microscale thermophoresis (MST). A total of 20 nM fluorescein-labelled nucleotides and increasing concentrations of proteins were incubated and measured by MST. The dissociation constant (Kd) was quantified to estimate the binding affinity. […]
The interaction between c-di-GMP nucleotides and various proteins was measured by using MST with a fluorescein-labelled c-di-GMP (2′-Fluo-AHC-c-di-GMP, abbreviated as fl-c-di-GMP; 2′-Fluo-AHC-c-di-AMP, fl-c-di-AMP; 2′-Fluo-AHC-cGMP, fl-cGMP; Biolog, Germany). These chemicals contain carboxyfluorescein that has excitation and emission wavelengths of 497 nm and 520 nm, respectively, which can be detected directly by a MST instrument. […]

| Compound | fold increases in Kd values [1] | Kd (PizD) [µM] | Kd (RavS^ΔTrM) [µM] |
| --- | --- | --- | --- |
| Nc1nc2c(ncn2[C@@H]2O[C@@H]3COP(=O)(O)O[C@H]4[C@@H](O)[C@H](n5cnc6c(=O)[nH]c(N)nc65)O[C@@H]4COP(=O)(O)O[C@H]3[C@H]2O)c(=O)[nH]1 [c-di-GMP, Cyclic di-GMP] | 1–2 fold | 0.1 |  |
| Nc1nc2c(ncn2[C@@H]2O[C@@H]3COP(=O)(O)O[C@H]4[C@@H](OC(=O)NCCCCCCNC(=O)c5ccc6c(c5)C(=O)OC65c6ccc(O)cc6Oc6cc(O)ccc65)[C@H](n5cnc6c(=O)[nH]c(N)nc65)O[C@@H]4COP(=O)(O)O[C@H]3[C@H]2O)c(=O)[nH]1 [fl-c-di-GMP, 2′-Fluo-AHC-c-di-GMP] |  |  | 6.06 ± 0.92 |
